Results on one compound are retold here after EP0619313A1, “LITHIUM SALT OF 2-O-ALK[…]” (TSUMURA & CO., priority 1992, dated 1994).

The nature of data set [1]: Toxicity after oral or intravenous administration, rats. Type of data set: in vivo. The settings on record: rat, in vivo, read-out: LD₅₀. How it is done: (§1) The test compound was administered orally or intravenously to Jcl:ICR mice and Jcl:Wistar rats (two mice or rats (male and female) per group). 2-O-octadecylascorbic acid lithium obtained in Example 1 as the test compound was suspended in 0.5% methyl cellulose in the case of oral administration and dissolved in physiological saline in the case of intravenous administration.

The next data set deals with Jcl:Wistar rats. Described as above. Type of data set: in vivo. Here is the method: as §1
In data set [2] the target is T1, GST-cdc25Hu2 fused protein (Homo sapiens, UniProt P30305).
T1 sequence (P30305 1-580): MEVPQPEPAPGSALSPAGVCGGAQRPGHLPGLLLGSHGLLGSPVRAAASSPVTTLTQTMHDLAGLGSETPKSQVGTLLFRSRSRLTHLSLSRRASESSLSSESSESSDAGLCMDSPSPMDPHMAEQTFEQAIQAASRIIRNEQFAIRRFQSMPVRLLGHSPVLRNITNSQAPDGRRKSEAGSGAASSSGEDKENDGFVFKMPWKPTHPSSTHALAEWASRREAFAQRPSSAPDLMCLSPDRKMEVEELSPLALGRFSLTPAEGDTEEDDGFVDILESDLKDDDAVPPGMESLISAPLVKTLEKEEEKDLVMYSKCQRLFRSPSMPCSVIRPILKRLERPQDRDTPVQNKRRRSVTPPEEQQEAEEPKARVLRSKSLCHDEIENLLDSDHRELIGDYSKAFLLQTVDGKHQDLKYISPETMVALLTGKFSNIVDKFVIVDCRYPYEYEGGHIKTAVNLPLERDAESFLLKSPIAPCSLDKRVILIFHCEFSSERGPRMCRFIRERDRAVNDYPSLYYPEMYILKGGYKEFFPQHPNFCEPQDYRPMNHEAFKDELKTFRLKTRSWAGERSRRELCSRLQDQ
Put plainly: GST-cdc25Hu2 (protein phosphatase) inhibitory activity. The following applies: 37°C for 60 minutes, read-out: cdc25 activity inhibited. Type of data set: biochemical. How it is done: A test compound (2-O-octadecylascorbic acid lithium obtained in Example 1)(80 µM) was added to a reaction mixture containing GST-cdc25Hu2 fused protein (60 µg/ml), p-nitrophenylphosphate (manufactured by Wako Pure Chemical Industries, Ltd.)(10 mM), bovine serum albumin (manufactured by Sigma, U.S.A.)(100 µg/ml), DDT (dithiothreitol) (manufactured by Wako Pure Chemical Industries, Ltd.)(10 mM) and HEPES (2-hydroxyethylpiperazine-N'-2-ethane sulfate)(25 mM, pH 8.0). The mixture was subjected to reaction at 37°C for 60 minutes. Then, absorbance at 405 nm was measured, and the inhibitory activity was evaluated based on the decrease of the absorbance.

In data set [3] the test system is lipid peroxidation enzyme. As to the kind of experiment: Inhibitory activity against lipid peroxidation enzyme (rat liver microsome, carbon tetrachloride, thiobarbituric acid). The settings on record: 300 µM; carbon tetrachloride 20 mM; 37°C for 12 minutes. Type of data set: biochemical. How it is done:
Rat liver microsome (2 mg), which is a NADPH generating system, the test compound (2-O-octadecylascorbic acid lithium obtained Example 1)(300 µM) and carbon tetrachloride (20 mM) were reacted at 37°C for 12 minutes. A mixed solution of thiobarbituric acid and trichloroacetic acid was added to the solution. Absorbance was measured at 535 nm.

A short description of data set [4]: Toxicity after oral or intravenous administration, mice. Type of data set: in vivo. The settings on record: mouse, in vivo, read-out: LD₅₀. How it is done: as §1
The next data set relates to Jcl:ICR mice. Described as above. The data set is classed as in vivo. How it is done:
as §1

The test system of data set [5] is myocardial infarction focus. Put plainly: Inhibition of development of myocardial infarction focus after coronary obstruction-reperfusion in rats. The data set is classed as in vivo, Male Wistar-rats. The settings on record: 1 mg/kg intravenous. Here is the method:
Male Wistar-rats (11 to 12 weeks old) were used and anethesized with pentobarbital-Na, and medianus thoracotomy was carried out under artificial respiration. After incising the pericardium membrane, the heart was exposed. The base of the left coronary artery together with cardiac muscle was threaded with a sutural needle and thread (marketed by Lederle (Japan), Ltd., 7-0 silk), which were passed through a polyethylene tube, and the thread was pulled. Thus, coronary artery was obstructed. One hour later, the thread was loosed to make blood to flow again. Thirty to sixty minutes after reperfusion, the thorax was closed and the rat was kept under arousal.
After 24 hours, the rats were anesthetized again, and the heart was removed quickly and soaked in ice-cooled physiological saline. The coronary artery was obstructed again to know a dangerous region. Evans' Blue (1%) was perfused through a polyethylene tube inserted into the aorta retrogradely, and normal region was separated from the dangerous region. Thereafter, the left ventricle was divided into 6 parts parallel to the vertical axis and dyed with triphenyl tetrazolium chloride (TTC)(1%) at 37°C for 10 minutes except necrotic cells. The infarction focus was weighed. The test drug (2-O-octadecylascorbic acid obtained in Example 1) was dissolved in physiological saline, and administered intravenously 30 minutes after the coronary obstruction.

Data set [6] has as its target T2, Phospholipase A₂ derived from pig pancreas (Sus scrofa, UniProt P00592).
T2 construct: Phospholipase A₂ derived from pig pancreas; from tissue; host or cells: pig pancreas
Put plainly: Inhibitory activity against phospholipase A₂. The settings on record: pH 9, read-out: enzymatic activity of the phospholipase inhibited. Type of data set: biochemical. Here is the method:
Phospholipase A₂ derived from pig pancreas was reacted for 10 minutes in 0.1M glycine-NaOH buffer (pH 9) containing a test compound (2-O-octadecylascorbic acid lithium obtained in Example 1)(300 µM) and labeled phosphatidylcholine. Thereafter, Ca⁺⁺ (2.5 mM) was added and the reaction was continued for additional 5 minutes. The reaction was stopped by adding 0.2M EDTA solution to the reaction mixture. The mixture was extracted with acidic […]. Scintillation of the […] layer was measured.

The next data set can be described thus: Water-solubility. The following applies: at 28°C.
The subject of data set [7] is rabbit defibrinated blood. As to the kind of experiment: Hemolysis test with rabbit defibrinated blood. The data set is classed as cell-based. The settings on record: not more than 1 µg/ml in physiological saline; 37°C for 1 hour; macroscopic observation of the supernatant. Here is the method: A physiological saline solution containing 2-O-octadecylascorbic acid lithium obtained in Example 1 below was warmed to 37°C, put in a Spitz roll, provided with rabbit defibrinated blood (Note)(0.1 ml) previously warmed to 37°C, shaken for mixing gently and warmed at 37°C for 1 hour. Then, this liquid was subjected to centrifugation. Macroscopic observation was made as to whether the supernatant had hemolysis.
Blood (about 20 ml) was drawn from rabbits, put in a flask containing about twenty glass beads of diameter of 8 mm, shaken for mixing gently for about 5 minutes and filtered through gauze. This preparation was carried out before use.

Where [8] appears, read: intravenous administration, dissolved in physiological saline.
[9] abbreviates: oral administration, suspended in 0.5% methyl cellulose.

T2 sequence (P00592 23-146): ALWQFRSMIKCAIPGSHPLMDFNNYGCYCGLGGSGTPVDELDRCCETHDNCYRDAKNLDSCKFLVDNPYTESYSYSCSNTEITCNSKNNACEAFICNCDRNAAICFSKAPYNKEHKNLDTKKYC

In the case of `CCCCCCCCCCCCCCCCCCOC1=C(O)[C@@H]([C@@H](O)CO)OC1=O.[Li]` [2-O-octadecylascorbic acid lithium], the LD50 in [1] (setting [8]) was 25 to 50 mg/kg; in data set [1] (setting [9]) it was at least 2000 mg/kg; in data set [4] (setting [8]) it was 25 to 50 mg/kg; in data set [4] (setting [9]), at least 2000 mg/kg. The “Abnormal findings in the autopsy of the survivors” value with Jcl:Wistar rats and in the data set with Jcl:ICR mice was “not observed” each time. Further, the “autopsy of the dead animals” value in the data set with Jcl:Wistar rats (intravenous administration) and in the data set on Jcl:ICR mice (intravenous administration) was “Pulmonary congestion was observed” each time. Further, in data set [2], the inhibition at 80 µM was found to be 93.6%. The “inhibitory ratio of the enzymatic activity” value in data set [3] is 75%. For the same compound, in data set [5] (30 minutes after the coronary obstruction, N=7, control 60.0±1.8%), the “infarction focus per the dangerous region (IS/AR)” value amounted to 40.5±4.6%. Moreover, in data set [5] (P<0.001), the “inhibition in comparison with the control group” value came to 32.7%. In data set [5] (compared with the physiological saline group), the “dangerous region per left ventricle (AR/LV)” value is recorded as “no significant difference”. Further, the inhibition at 300 µM in data set [6] was found to be 59%. In the data set “Water-solubility”, the water-solubility is on record as 1 g/83 ml (water). For the same compound, the hemolysis entry in data set [7] is on record as “not observed”.
